Experimental data as given in US12492410B2, “Engineered cytolytic immunecell” (Autolus Limited, priority 2018, dated 2025).

Legend:
[1] = system: minocycline dAb (SEQ ID NO: 8); assay: Phage-peptide screening for minocycline-displaceable binding to minocycline dAb; details: for displaceable specificity for minocycline dAb: minocycline dAb-Fc immobilised on beads, with and without 1 μM minocycline, control antibody SEQ ID NO: 13; for affinity of peptide for minocycline dAb: stated in words
Experimental: FIG. 4—Graphs showing minocycline displaceable binding of peptides SEQ ID NO: 34, SEQ ID NO: 35, SEQ ID NO: 36 and SEQ ID NO: 37 to minocycline dAb (SEQ ID NO: 8) versus control antibody (SEQ ID NO: 13).
A minocycline dAb-Fc was immobilised on beads. The minocycline dAb was encoded by SEQ ID NO: 8. Phage-peptide colony screening was performed with and without 1 μM minocycline.
An antibody comprising SEQ ID NO: 13 was used as a control antibody (the control antibody comprises different CDRs to SEQ ID NO: 8).

[2] = system: HEK293T cells; assay: Minocycline induced secretion of ER retained IL12, IL12 ELISA of supernatant; assay type: cell-based; details: IL12 fused to the peptide, in the presence of KDEL anchored minocycline dAb; minocycline 0 μM; all time points (2 and 4 hours)
Experimental: FIGS. 5A, 5B and 5C—Minocycline induced secretion of ER retained IL12 HEK293T cells were transiently transfected with constructs expressing the intracellular KDEL tagged anti-minocycline dAb and dAb-specific peptide (GWARA or PWAYS) tagged IL-12 (A). Transfection efficiency determined by staining for HA marker expression with transfection efficiency ranging from 50-70% (B). […] Supernatant was collected 2 and 4 hours post minocycline addition and IL12 ELISA readout carried out (C).
The KDEL amino acid sequence was used to retain proteins within the ER/Golgi apparatus. The minocycline specific dAb was tagged with the KDEL sequence (SEQ ID NO: 29) thus anchoring it within with the ER/Golgi and a molecule of interest (IL12) is in turn tagged with the peptide with affinity to the dAb causing its retention. Upon addition of minocycline, the dAb-peptide complex dissociates enabling secretion of the peptide-tagged molecule.
HEK293T cells were seeded at […] in 96-well plates to achieve confluency of 50-60% for next day transfection. A transfection master mix was made by adding 30 μL of GeneJuice transfection reagent to 470 μL plain IMDM and incubating for 5 minutes. For each well, 0.13 μg of plasmid DNA was then added to 5.2 uL of the IMDM-Genejuice master mix and incubated for 15 minutes. Transfection mix containing the GeneJuice-DNA complex was then added to the cells. […]

Chain of minocycline dAb (SEQ ID NO: 8) (as listed by the source): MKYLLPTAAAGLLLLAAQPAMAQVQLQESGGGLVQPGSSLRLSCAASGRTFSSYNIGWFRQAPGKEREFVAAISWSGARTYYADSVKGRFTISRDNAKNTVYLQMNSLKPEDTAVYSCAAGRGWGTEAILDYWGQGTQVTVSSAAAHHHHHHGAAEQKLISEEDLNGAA

| Sequence | displaceable specificity for minocycline dAb [1] | affinity of peptide for minocycline dAb [1] | IL12 secretion [2] |
| --- | --- | --- | --- |
| ACPGWARAFC (minocycline peptide mimic) [SEQ ID NO: 34] | displaceable specificity | high affinity | concentration dependent increase |
| ACPPWAYSFC (minocycline peptide mimic) [SEQ ID NO: 37] | displaceable specificity | low affinity | concentration dependent increase |
| ACPQWAMMFC (minocycline peptide mimic) [SEQ ID NO: 36] | displaceable specificity |  |  |
| ACPHWAQAFC (minocycline peptide mimic) [SEQ ID NO: 35] | displaceable specificity |  |  |
